Test results from ChEMBL document CHEMBL5729420, “Substituted imidazo[1,2-c]pyrimidines as PRC2 inhibitors” (2022).

Biological target: Histone-binding protein RBBP4/Polycomb protein EED/Polycomb protein SUZ12/Zinc finger protein AEBP2 (Homo sapiens, UniProt O75530+Q09028+Q15022+Q6ZN18)
Experiment: Enzymatic Activity Assay: An aliquot of each serial dilution of test compound was added to deep 384 well plate using Acoustic Technology instrument (Echo 550, LabCyte) containing reaction buffer (50 mM Tris-HCl (pH 8), 0.01% Brij35, 1 mM EDTA, 1 mM DTT, 1 mM PMSF and 1% DMSO), 10 nM purified PRC2 complex and 0.05 mg/ml core histone H3 in a 5 μl volume. The reaction was mixed gently and then pre-incubated for 20 min at 30° C. The enzymatic reaction was initiated by adding 1 uM S-Adenosyl-L-[methyl-3H]methionine and incubated for 1 hr at 30° C. After 1 hr, the reaction product was detected using a filter binding method and the amount of tritiated H3 core histone was quantitated using a scintillation counter.
Format: protein-complex assay

Sequence of Histone-binding protein RBBP4/Polycomb protein EED/Polycomb protein SUZ12/Zinc finger protein AEBP2 (O75530 whole entry): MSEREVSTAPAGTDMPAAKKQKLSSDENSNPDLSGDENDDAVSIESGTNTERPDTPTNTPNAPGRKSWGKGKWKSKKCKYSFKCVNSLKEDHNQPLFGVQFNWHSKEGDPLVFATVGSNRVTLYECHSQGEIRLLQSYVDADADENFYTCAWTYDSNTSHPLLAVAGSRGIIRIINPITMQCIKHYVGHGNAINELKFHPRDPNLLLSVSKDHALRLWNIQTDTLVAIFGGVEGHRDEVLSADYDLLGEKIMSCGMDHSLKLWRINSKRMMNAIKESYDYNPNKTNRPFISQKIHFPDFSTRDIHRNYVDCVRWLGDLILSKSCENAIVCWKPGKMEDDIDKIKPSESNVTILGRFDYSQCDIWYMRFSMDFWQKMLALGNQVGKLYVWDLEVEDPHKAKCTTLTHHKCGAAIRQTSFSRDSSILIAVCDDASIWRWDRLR
Sequence of Histone-binding protein RBBP4/Polycomb protein EED/Polycomb protein SUZ12/Zinc finger protein AEBP2 (Q15022 whole entry): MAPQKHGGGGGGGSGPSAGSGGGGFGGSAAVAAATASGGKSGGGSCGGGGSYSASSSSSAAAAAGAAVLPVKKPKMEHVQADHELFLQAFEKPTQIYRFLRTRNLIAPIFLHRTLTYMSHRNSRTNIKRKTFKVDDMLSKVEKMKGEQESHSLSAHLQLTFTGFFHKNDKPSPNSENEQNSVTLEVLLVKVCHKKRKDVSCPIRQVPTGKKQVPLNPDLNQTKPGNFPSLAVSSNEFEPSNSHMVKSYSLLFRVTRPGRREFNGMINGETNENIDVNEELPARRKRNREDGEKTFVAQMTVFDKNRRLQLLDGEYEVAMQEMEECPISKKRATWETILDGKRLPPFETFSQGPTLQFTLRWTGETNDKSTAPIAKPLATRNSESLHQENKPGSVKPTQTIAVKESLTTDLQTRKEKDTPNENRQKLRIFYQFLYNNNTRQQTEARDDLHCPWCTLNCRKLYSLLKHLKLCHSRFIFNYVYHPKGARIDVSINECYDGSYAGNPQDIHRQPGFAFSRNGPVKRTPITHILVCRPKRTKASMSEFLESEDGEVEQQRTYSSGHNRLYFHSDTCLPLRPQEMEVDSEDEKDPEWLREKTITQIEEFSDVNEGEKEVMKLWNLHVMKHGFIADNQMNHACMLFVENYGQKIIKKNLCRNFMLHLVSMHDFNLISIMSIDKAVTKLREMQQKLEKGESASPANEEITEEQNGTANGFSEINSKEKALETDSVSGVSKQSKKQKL
Sequence of Histone-binding protein RBBP4/Polycomb protein EED/Polycomb protein SUZ12/Zinc finger protein AEBP2 (Q6ZN18 whole entry): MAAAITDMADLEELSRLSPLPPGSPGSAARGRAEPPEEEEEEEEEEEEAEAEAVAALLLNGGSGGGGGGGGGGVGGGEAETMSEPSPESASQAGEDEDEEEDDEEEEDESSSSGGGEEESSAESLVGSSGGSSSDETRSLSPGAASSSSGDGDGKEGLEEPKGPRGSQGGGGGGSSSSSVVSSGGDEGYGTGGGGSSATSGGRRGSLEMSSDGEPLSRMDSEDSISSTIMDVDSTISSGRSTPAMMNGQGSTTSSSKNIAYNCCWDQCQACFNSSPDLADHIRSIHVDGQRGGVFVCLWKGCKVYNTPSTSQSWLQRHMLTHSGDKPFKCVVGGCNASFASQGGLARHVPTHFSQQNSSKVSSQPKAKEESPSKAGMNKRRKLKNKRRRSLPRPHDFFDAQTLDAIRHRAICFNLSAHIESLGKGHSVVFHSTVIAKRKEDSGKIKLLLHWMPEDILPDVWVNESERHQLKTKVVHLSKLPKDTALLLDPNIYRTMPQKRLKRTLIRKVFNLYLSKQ
Sequence of Histone-binding protein RBBP4/Polycomb protein EED/Polycomb protein SUZ12/Zinc finger protein AEBP2 (Q09028 whole entry): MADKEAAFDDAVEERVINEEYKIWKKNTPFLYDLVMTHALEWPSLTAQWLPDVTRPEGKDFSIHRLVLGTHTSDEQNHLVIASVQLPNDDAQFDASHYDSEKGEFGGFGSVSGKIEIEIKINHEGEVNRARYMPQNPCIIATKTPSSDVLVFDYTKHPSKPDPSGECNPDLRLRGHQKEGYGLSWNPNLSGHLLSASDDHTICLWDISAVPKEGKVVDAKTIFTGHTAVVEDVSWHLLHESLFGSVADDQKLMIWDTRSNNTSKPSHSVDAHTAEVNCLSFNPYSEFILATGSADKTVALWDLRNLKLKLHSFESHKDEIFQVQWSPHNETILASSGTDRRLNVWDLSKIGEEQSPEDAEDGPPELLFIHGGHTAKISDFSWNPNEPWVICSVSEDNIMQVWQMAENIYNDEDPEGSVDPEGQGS

IC50: > 500 nM
Compound: Cc1cc(-c2cnc(NCc3c(F)ccc4c3CCCO4)n3cc(C#N)nc23)n(C)n1
